These results are taken from the METLIN SMRT retention time set (Domingo-Almenara et al. 2019).

A short description of the series: gradient 5% acetonitrile 3 min, to 50% in 2 min, to 85% in 15 min, held 3 min, 100 µL/min. As to conditions: column: Zorbax Extend-C18 2.1 x 50 mm; eluents: water / acetonitrile, 0.1% formic acid. The procedure, abridged: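 Data were gathered over 3 months by HPLC coupled to a quadrupole time-of-flight mass spectrometer, operated in positive and negative ionization mode. Mixtures of ~100 pure standards ran on a Zorbax Extend-C18 column (2.1 × 50 mm, 1.8 μm) at 100 μL/min, with water and acetonitrile each containing 0.1% formic acid and dead and dwell volumes of 40 μL and 900 μL. Retention time was read from adduct peaks picked by computer and checked manually.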
Turning to `Oc1cc(-n2cccn2)c(O)cc1-n1cccn1`, the RP-LC retention time came out at 868 s. In turn, `CCN(CC)c1nc(C(=O)N2CCN(C3CCN(C)CC3)CC2)nc2nc(C)cc(C)c12` came in with an RP-LC retention time of 540 s. In the case of `O=C(NCc1ccc(F)c(Cl)c1)C1CCN(c2ccc(SCc3ccccc3)nn2)CC1`, the RP-LC retention time was found to be 839 s. For `CN1C(=O)c2cc(C(=O)NCc3cccc(F)c3)nn2CC1(C)C(=O)NC1CCCC1` (centres undefined) the value was 750 s. Consider `CC(=O)Nc1ccc(OCC(=O)NC2CCN(Cc3ccccc3)CC2)nc1`, for which the RP-LC retention time stood at 572 s. `CC(=O)Nc1cccc(-c2nc(-c3ccc4ncn(C(C)C)c4c3)no2)c1` displayed an RP-LC retention time of 660 s. With `CCOc1ccc(NC(=O)Nc2nccn(-c3cccc(F)c3)c2=O)cc1` the figure was 939 s; with `O=S(=O)(Nc1cccnc1)c1cc(-c2nnc(-c3ccccc3)o2)ccc1F`, 744 s. `COCCc1noc(C2CN(C(=O)C3COc4ccccc4O3)C2)n1` (centres undefined) registered an RP-LC retention time of 736 s. Molecule `Cn1nnc2ccc(-c3noc(-c4cccc(F)c4)n3)cc21` came in with an RP-LC retention time of 1010 s. With `COCCNC(=O)N1CCCC(C)(C(=O)NCc2ccccc2)C1` (centres undefined) the figure was 639 s. With `CC(C)C(=O)Nc1ccc(OCc2cc(C(=O)NC3CCCC3)no2)cc1` the figure was 837 s; with `OC(c1cc(C(F)(F)F)nc2c(Cl)cc(Cl)cc12)C1CCCCN1` (centres undefined), 786 s. `CCOC(=O)c1ccc(NC(=O)C2CCCN(S(=O)(=O)c3cc(OC)ccc3OC)C2)cc1` (centres undefined) showed an RP-LC retention time of 975 s. With `Cc1cc(=O)n(CC(=O)NCc2cccs2)c(N(C)Cc2ccccc2)n1` the figure was 698 s; with `O=C(NCc1ccc(Cl)cc1)C1CCN(C(=O)C2Sc3ccccc3NC2=O)CC1` (centres undefined), 765 s; with `CN1CCCC1c1nc(C2CN(C(=O)Cn3c(=O)oc4ccccc43)C2)no1` (centres undefined), 582 s. `O=C(CCCSc1ccc(F)cc1)Nc1nnc(Cc2ccc3c(c2)OCO3)o1` had an RP-LC retention time of 807 s. For the molecule `CCN1CCN(CCCNC(=O)C2CCCN(c3nnc(-n4cccc4)s3)C2)CC1` (centres undefined), the RP-LC retention time came out at 572 s. For `COc1ccc(C2CCCN2C(=O)c2ccn(C)n2)cc1` (centres undefined) the value was 730 s; for `O=C(Nc1ccc(Cl)cc1)C1CCc2nc(N3CCOCC3)ncc2C1` (centres undefined), 757 s. As for `CCCn1c(-c2cccc(C(=O)NCc3c(C)cc(C)cc3C)c2)nc2cccnc21`, the RP-LC retention time was 979 s. `CC1CCCN(c2ccc(-c3noc(CN4CCN(c5ccccc5F)CC4)n3)cn2)C1` (centres undefined) gave an RP-LC retention time of 1090 s. With `O=C(c1cccn1Cc1noc(-c2ccc(Cl)cc2)n1)N1CCCCCC1` the figure was 1160 s; with `Cc1ccc(C)c(N2CCN(C(=O)c3nc4cccnc4n(C)c3=O)CC2)c1`, 653 s; with `CCc1cccc(C)c1NC(=O)Cn1cnc2nc(N3CCCC(C(=O)NC)C3)sc2c1=O` (centres undefined), 672 s. `Cn1c(=O)c(C(=O)NCc2ccccc2Cl)nc2cccnc21` yielded an RP-LC retention time of 728 s. With `O=C(c1ccco1)N1CCc2cc(-c3csc(C4CC4)n3)ccc21` the figure was 1070 s. As to `CC1CCN(C(=O)c2cn(CC3CCCO3)cc3c(=O)n(-c4ccccc4)nc2-3)CC1` (centres undefined), the RP-LC retention time came out at 766 s.

In turn, `COCc1cc(=O)n(CC(=O)Nc2ccc(C)cc2)c(N)n1` returned an RP-LC retention time of 595 s.

`O=S(=O)(c1ccccc1)N1CCCC(c2nc(CCOCC3CC3)no2)C1` (centres undefined) gave an RP-LC retention time of 924 s.

The molecule `O=C(CCNc1cnc2cnccn12)NCc1ccc(C(F)(F)F)cc1` displayed an RP-LC retention time of 611 s. With `O=C1CN(S(=O)(=O)c2ccc([N+](=O)[O-])cc2)c2ccccc2N1` the figure was 738 s. For `COc1ccc(-c2nc(NCc3ccco3)ncc2C(=O)O)cc1` the value was 781 s; for `Cc1nnc(-c2c(S(=O)(=O)NC3CCCCC3)c(C)n(C)c2C)o1`, 814 s. Take `CN(C)c1cc(N2CCCC(NC(=O)c3ccnn3C)C2)ncn1` (centres undefined): the RP-LC retention time is 578 s.

Take `CCn1nc(C)c(CCN(C)C(=O)Nc2cccc(C(=O)OC)c2)c1C`: the RP-LC retention time was determined as 644 s. For the molecule `O=C(C1=CN(c2ccccc2)c2cc(F)ccc2S1(=O)=O)N1CCOCC1`, the RP-LC retention time came to 754 s.

`CCOC(=O)c1ccc(Nc2cc(C(=O)N3CCCCC3)nc3cc(OC)c(OC)cc23)cc1`: the RP-LC retention time stood at 737 s. For `CC1(C)Cc2cccc(OCC(=O)N3CCC(c4nnc(-c5ccco5)s4)CC3)c2O1` the value was 827 s; for `Cc1ccc(C)c(NC(=O)Cn2c(N)nc(C)cc2=O)c1`, 596 s.

`O=C(Nc1ccc(F)cc1F)N1CCC(CCNC(=O)C2(c3ccccc3)CC2)CC1` gave an RP-LC retention time of 886 s. The molecule `CC(C)n1nnc2cc(S(=O)(=O)N3CCCC3C(=O)N3CCN(c4ccccn4)CC3)ccc21` (centres undefined) showed an RP-LC retention time of 609 s. For the molecule `CCNC(=O)C1=CCN(C(=O)c2cc(C)cc(C)c2)CC1`, the RP-LC retention time turned out to be 720 s.

Regarding `Cc1ccccc1CNC(=O)C1(C)CCCN(C(=O)Nc2ccc(F)cc2)C1` (centres undefined), the RP-LC retention time was determined as 899 s. For `CCOc1ccc(-c2noc(Cn3cnc4c(cnn4-c4cc(Cl)ccc4C)c3=O)n2)cc1OC` the value was 1030 s; for `Cc1ccc(NC(=O)C2CCN(S(=O)(=O)c3cn(C(C)C)cn3)CC2)cc1Cl`, 883 s; for `CCn1c(C(=O)NCCCN2CCOCC2)cc2c(-c3cccs3)nn(-c3ccccc3)c21`, 705 s. For `COc1ccc(CNC(=O)c2cn3cc(C)ccc3n2)cc1OC` the value was 614 s; for `O=C(Nc1nnc(Cc2ccccc2)s1)C1CC(=O)N(c2n[nH]c3ccccc23)C1` (centres undefined), 730 s.

Regarding `COc1ccc(Cl)cc1NC(=O)C1CCN(S(C)(=O)=O)c2cc(C)ccc2O1` (centres undefined), the RP-LC retention time was found to be 1110 s. For `O=C(NCc1ccccc1)Nc1c(-c2ccccc2)nc2ccccn12` the value was 626 s; for `O=S(=O)(c1ccc(F)cc1)N1CC(F)(F)C[C@H]1CN1CCc2ccccc2C1`, 738 s; for `O=C(Cn1c(=O)n(CCc2ccccc2)c(=O)c2ncccc21)Nc1ccc2c(c1)OCO2`, 734 s. For `O=S(=O)(Nc1ccc2c(c1)OCO2)c1ccc2ccccc2c1` the value was 953 s; for `CC(C)n1cc(C2=CCN(S(=O)(=O)Cc3ccc(Cl)cc3)CC2)c2cccnc21`, 1130 s; for `C=CCN1C(=O)COc2ccc(-c3csc(NC(=O)C4CC4)n3)cc21`, 842 s. With `CN1C[C@H](C(=O)N[C@]2(C)O[C@@]3(O)[C@@H]4CCCN4C(=O)[C@H](Cc4ccccc4)N3C2=O)CC2c3cccc4[nH]cc(c34)C[C@H]21` (some centres undefined) the figure was 683 s; with `Cn1nc(C(=O)NCc2ccc3c(c2)OCO3)c2c1CCN(C(=O)c1ccco1)C2`, 725 s; with `Cn1c(N2CCCC(C(=O)NCC3CCN(Cc4ccccc4F)CC3)C2)cc(=O)n(C)c1=O` (centres undefined), 579 s. `COc1ccccc1C(=O)N1CCCC1c1cc(C(C)C)on1` (centres undefined) had an RP-LC retention time of 831 s.

Consider `Cc1ccc(NC(=O)N2CCC(C(C)C(=O)Nc3ccccc3F)CC2)cc1` (centres undefined), for which the RP-LC retention time stood at 869 s. In the case of `CCn1cc(CCNC(=O)NCC(C)C)c2cccnc21`, the RP-LC retention time amounted to 636 s. With `O=c1c2cc(-c3ccc(F)cc3)nn2ccn1Cc1noc(CN2CCCCCC2)n1` the figure was 683 s; with `O=C(Nc1ccc(CN2CCN(c3ccccn3)CC2)cc1)c1ccccc1C(F)(F)F`, 564 s.

The molecule `COc1ccc(C2=C(C)C(Nc3ccccc3OC)=NS2(=O)=O)cc1` came in with an RP-LC retention time of 925 s. For `COC(=O)C1=CN(c2ccc(Br)cc2)c2ccccc2S1(=O)=O` the value was 908 s; for `CC(C)c1nnc2ccc(N3CCOCC3)nn12`, 645 s; for `CCOC(=O)c1nc(Nc2ccc(OC)c(Cl)c2)c2ccccc2n1`, 886 s. For `Cc1cc(Cl)ccc1NC(=O)C1CCCN1S(=O)(=O)c1cc2c(cc1C)NC(=O)C(C)O2` (centres undefined) the value was 914 s; for `O=C(Nc1nnc(-c2ccco2)o1)c1c[nH]c2ccccc12`, 656 s; for `CN1C(=O)c2[nH]nc(-c3ccccc3)c2C1c1cccc(O)c1` (centres undefined), 687 s.

The molecule `COCCNc1c(-c2ccc(F)cc2)nc2sc(C(=O)NCc3cccnc3)c(C)n12` yielded an RP-LC retention time of 631 s. `NC(=O)COC1CCC12CCN(C(=O)c1ccc3c(c1)OCO3)CC2` (centres undefined) displayed an RP-LC retention time of 662 s.

Turning to `COc1cc(NC(=O)N2CCCC2c2cccc(F)c2)cc(OC)c1OC` (centres undefined), the RP-LC retention time is 848 s. Molecule `Cc1nc(-c2ccc(N3CCN(C(=O)c4cc(F)ccc4F)CC3)nc2)sc1C` showed an RP-LC retention time of 890 s.

As for `Cc1noc(C)c1-c1ccc(S(=O)(=O)N2CCCCC2)cc1`, the RP-LC retention time amounted to 961 s. In turn, `CCOc1ccc(CNC(=O)C2CCCN(c3ccc(=O)n(-c4ccc(F)cc4)n3)C2)cc1` (centres undefined) registered an RP-LC retention time of 869 s. For `Cc1cc(C)cc(NC(=O)c2c(O)c3cccnc3n(-c3ccc(F)cc3)c2=O)c1` the value was 803 s.
